Legend:
P. aeruginosa [1] = assay: Bactericidal assays under static conditions (PBS); format: cell-based
Experimental: Bactericidal assays under static conditions. […] Silica nanoparticles (NO-releasing and control), PROLI/NO, and proline were added to separate aliquots of the bacterial suspension over a concentration range optimized for each system. After 1 h incubation at 37° C. with gentle agitation, 100-μL aliquots from each suspension were plated on tryptic soy agar. After overnight incubation at 37° C., the colonies on each plate were counted, allowing for calculation of the number of viable P. aeruginosa cells in each vial at the time of plating.

P. aeruginosa [2] = assay: Time-based bactericidal assays under nutrient growth conditions (TSB); format: cell-based; parameters: amount of NO per mL required for complete bacterial killing: unit not given here
Experimental: Time-based bactericidal assays under nutrient growth conditions. To test the temporal efficacy of the NO-releasing silica nanoparticles, time-based antibacterial assays were conducted in TSB nutrient media. P. aeruginosa was cultured in TSB to a concentration of 10^8 CFU·mL^−/1 and diluted to 10^4 CFU·mL^−1 in additional TSB. […] Bacterial viability was determined as described above after incubating the plates overnight at 37° C.

S. aureus [3] = assay: Fractional bactericidal concentration (FBC120) time-based synergistic killing assay in TSB; format: cell-based
Experimental: (§1) Determining the Minimum Bactericidal Concentration (MBC120). […] This value, the MBC120, was acquired by growing S. aureus to an OD600=0.075 in TSB. At this value the concentration was determined to be 10^8 CFUs/mL. In order to achieve a final bacterial concentration of 10^4, four ten-fold dilutions were performed in TSB. […] For proli/NO, 1 mL of 2×10^4 CFUs/mL bacterial solution was added to various masses (0.5-16 mg). […] The plates were incubated overnight at 37° C. and enumerated. The graphs present the total CFUs present in each tube as determined by counting each colony and multiplying that number by 100 to account for both 10-fold dilutions. Determination of Fractional Bactericidal Concentration (FBC120). […] S. aureus was cultured to a concentration of 10^8 CFUs/mL and the concentration was adjusted to 2×10^4 CFUs/mL in TSB. […] After incubating the plates overnight at 37° C., viability was determined by counting the number of distinct colonies on each plate and multiplying this number by 100 to account for the two 10-fold dilutions. The numerical value of the FBC120 was obtained according to the equation:

P. aeruginosa cells = assay: Confocal microscopy with DAF-2 DA NO probe and propidium iodide; format: cell-based
Description: Once inside the bacterial cell membrane, the DAF-2 DA probe is hydrolyzed to DAF-2, which is membrane-impermeable. […] Cells loaded with DAF-2 were imaged in the presence of propidium iodide (PI), which is a nucleic acid viability dye that only enters cells with compromised membranes, and fluoresces red once inside the cells. Thus, red fluorescence is indicative of cell death. […] After a peak intracellular intensity of DAF-2 fluorescence was reached, the red fluorescence of the PI began to increase, indicating entry of the PI into the cells due to membrane disruption and cell death.

[4] = format: physicochemical
Experimental: We synthesized proli/NO by subjecting a 2:1 molar ratio of sodium methoxide in methanol and proline to 5 atm of NO for 3 days. To the resulting solution excess diethyl ether was added. After vacuum removal of solvent a white solid was obtained. Its NO release was monitored using chemiluminescence; we determined that proli/NO releases a total of 1.8 μmol NO/mg in less than 70 s when exposed to PBS at pH 7.4. Release is initiated quickly by protonation of proline's cyclic amine or slowly by thermal degradation. In the MBC120 determination, proli/NO was kept on ice until exposure to bacterial solution to prevent thermal NO release. Proli/NO's MBC120 is 16 mg/mL against S. aureus. […] See Turner, T. D., et al., J Pharm. Pharmacol. 41, 775-80 (1989). […] Synergy is determined based on inhibition beyond what would be expected for each alone. […] More specifically, the MBC was used instead of the MIC, once again because we are interested in reducing a bacterium's chances of becoming resistant to the drug employed by developing conditions that will lead to a quick kill. Additionally, reducing the bacterial burden in wound beds quickly is paramount to prevent infections. […] See Feng Q. L. et al., J. Biomed. Mater. Res. 52, 662-668 (2000).
Nitric oxide release measurements. Nitric oxide release from both the diazeniumdiolate-modified silica nanoparticles and PROLI/NO was measured in deoxygenated phosphate-buffered saline (PBS, 0.01 M; 37° C.) at pH 7.4 using a Sievers NOA 280i chemiluminescence NO analyzer (Boulder, Colo.). Nitric oxide released from the donors was transported to the analyzer by a stream of N2 (70 mL·min^−1) passed through the reaction cell. The instrument was calibrated with air passed through a NO zero filter (0 ppm NO) and a 24.1 ppm NO standard gas (balance N2).

L929 cells = assay: L929 propidium iodide (PI) viability assay (Example 1); format: cell-based, mouse; details: 2 mg/mL, L929, KRH buffer
Experimental: [formula] L929 propidium iodide (PI) viability assay. L929 cells were plated on 24-well tissue culture treated dishes (BD Bioscience #353047) at a density of 3.0×10^5 cells/ml (150×10^3 cells/well) and incubated overnight at 37° C., in 5% CO2/95% air for 18-20 h. For the PI assay, the incubation buffer was aspirated from each of the wells and replaced with 500 μL of Krebs-Ringer-HEPES (KRH) buffer containing (mM): 115 NaCl, 5 KCl, 1 CaCl2, 1 KH2PO4, 1.2 MgSO4, 25 HEPES, pH 7.4, supplemented with 30 μM of PI. The fluorescence of the cells was determined in a concentration-dependent manner against both proli/NO and proline, as monitored using a FluoStar Galaxy plate reader (BMG Labtech, Durham, N.C.) with excitation and emission filters set at 544 and 640 nm, respectively. Fluorescence was acquired at 0 and 60 min. An additional 20 min incubation of cells with 40 μM digitonin was required to completely permeabilize plasma membranes and achieve maximum PI fluorescence. Cell viability was represented as an increase in PI fluorescence from each well expressed as percentage of the maximum fluorescence obtained in cells treated with digitonin (100% cell death). S. aureus cytotoxicity assay in PBS. […] Toxicity was measured by aliquoting this bacterial solution into eppendorf tubes containing proli/NO, incubating these solutions for one hour at 37° C., and then plating them on TSA plates. […]

S. aureus [5] = details: TSB
Experimental: as §1

mammalian cells = details: 200 ppm for 4 hours; cited from earlier work
[6] = amount of NO equal to 100 μg·mL^−1 nanoparticles

## O=C(O)[C@@H]1CCCN1 [proline]
P. aeruginosa [1]; over the concentration ranges tested
  killing of P. aeruginosa by controls depleted of NO: no killing
P. aeruginosa [1]; up to 20 mg·mL^−1, the highest concentrations tested
  toxicity to P. aeruginosa: no toxicity
P. aeruginosa [2]; TSB, 2 h
  growth of P. aeruginosa exposed to control solutions: proliferated

## O=C([O-])C1CCCN1[N+]([O-])=N[O-].[Na+].[Na+] (stereo not shown) [proli/NO]
S. aureus [3]; 8 mg/mL proli/NO alone
  toxicity to S. aureus, agent alone: non-toxic
S. aureus [3]; 2/16 mg/mL proli/NO, 21.9/[…] AgSD
  fraction of MBC120 used in the combination: 0.125
P. aeruginosa cells; 5 mg·mL^−1
  P. aeruginosa cell death (PI fluorescence): rapid cell death
  intracellular DAF-2 fluorescence prior to cell death: still not observed
P. aeruginosa cells; [6]
  P. aeruginosa cell death (PI fluorescence): cell death was not observed
  intracellular DAF-2 fluorescence: no intracellular DAF-2 fluorescence was observed
P. aeruginosa [1]; PBS, 1 h
  amount of NO required per mL for a 3 log reduction in bacterial viability: 4.5 μmol NO
  concentration completely bactericidal (3 logs of killing): 2.5 mg·mL^−1
P. aeruginosa [1]; PBS, by mass
  mass required relative to silica nanoparticles for complete killing: approximately 35 times
[4]; PBS at pH 7.4 (Example 1)
  time in which the total NO is released: less than 70 s
  total NO released: 1.8 μmol NO/mg
[4]; PBS pH 7.4, 37° C. (Example 2)
  total amount of NO released (t[NO]): 1.8 μmol NO·mg^−1
[4]; after immersion in / addition to buffer
  time required to reach the maximum NO flux (tm): approximately 1 min
[4]; not told, pH 7.4
  maximum NO flux ([NO]m): > 145000 ppb·mg^−1
[4]; pH 7.4
  NO release half life (t1/2): < 2 min
L929 cells
  toxicity to dermal fibroblasts: non-toxic
P. aeruginosa [2]; 12 mg·mL^−1, TSB
  time to complete killing: 30 min
P. aeruginosa [2]; 12 and 20 mg·mL^−1, TSB
  time of bacterial killing: < 30 min
P. aeruginosa [2]; TSB
  amount of NO per mL required for complete bacterial killing: 21.6
S. aureus [5]
  MBC120 (concentration for three logs of killing within 120 min): 16 mg/mL

## nitric oxide [NO gas]
Mammalian cells
  toxicity to mammalian cells: not toxic

## NCCNCCN [diethylenetriamine backbone, diethylenetriamine]
P. aeruginosa [1]; data not shown
  toxicity of backbone alone to P. aeruginosa: considerable toxicity
